Measurements as given in patent US7115624B1, “Method of inhibiting protein tyrosine phosphatase 1B and/or T-cell protein tyrosine phosphatase 4 and/or other PTPases with an Asp residue at position 48” (Novo Nordisk A/S, priority 1999, dated 2006).

Legend:
Type in all cases: biochemical
CD45 = target: T1, CD45 (Homo sapiens, UniProt P08575); experiment: PTPase inhibition, p-nitrophenyl phosphate substrate, Ki; details: pH 7.0 (Table 5); read-out: Ki values, CD45
T1 sequence (P08575 599-1306 limits assumed): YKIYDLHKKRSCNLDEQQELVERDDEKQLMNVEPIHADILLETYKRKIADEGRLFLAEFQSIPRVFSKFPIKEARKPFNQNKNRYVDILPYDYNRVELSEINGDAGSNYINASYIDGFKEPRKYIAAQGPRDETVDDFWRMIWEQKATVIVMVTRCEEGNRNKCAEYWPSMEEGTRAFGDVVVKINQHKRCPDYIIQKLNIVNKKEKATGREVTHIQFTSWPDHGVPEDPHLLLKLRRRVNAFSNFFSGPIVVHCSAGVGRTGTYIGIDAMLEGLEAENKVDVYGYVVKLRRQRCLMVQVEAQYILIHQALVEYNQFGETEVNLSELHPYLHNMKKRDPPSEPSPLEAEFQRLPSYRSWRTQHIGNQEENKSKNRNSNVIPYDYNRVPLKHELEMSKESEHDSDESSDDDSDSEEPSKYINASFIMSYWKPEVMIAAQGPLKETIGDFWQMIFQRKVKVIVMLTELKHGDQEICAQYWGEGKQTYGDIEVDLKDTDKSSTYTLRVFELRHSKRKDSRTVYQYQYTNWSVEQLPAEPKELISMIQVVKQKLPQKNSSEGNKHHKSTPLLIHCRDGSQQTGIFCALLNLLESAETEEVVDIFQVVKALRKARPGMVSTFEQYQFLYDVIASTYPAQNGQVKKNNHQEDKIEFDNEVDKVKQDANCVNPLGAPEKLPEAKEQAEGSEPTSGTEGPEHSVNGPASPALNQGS
Experimental: (§1) The assay conditions are as follows. Appropriate concentrations of the compounds of the invention (e.g., 0.1 to 100 μM) are added to the reaction mixtures containing different concentrations of the substrate, p-nitrophenyl phosphate (range: 0.16 to 10 mM—final assay concentration). The buffer used was 50 mM HEPES pH 7.0, 100 mM sodium chloride, 0.1% (w/v) bovine serum albumin, 5 mM glutathione, and 1 mM EDTA. The reaction was started by addition of the enzyme and carried out in microtiter plates at 25° C. for 60 minutes. The reactions are stopped by addition of NaOH. […] The data are analyzed using nonlinear regression fit to classical Michaelis Menten enzyme kinetic models. Inhibition is expressed as Ki values in μM.

PTP1B = target: T2, PTP1B (Homo sapiens, UniProt P18031); experiment: as above; details: pH 7.0; wt (Table 4); read-out: Ki values, PTP1B wt
T2 sequence (P18031 1-321): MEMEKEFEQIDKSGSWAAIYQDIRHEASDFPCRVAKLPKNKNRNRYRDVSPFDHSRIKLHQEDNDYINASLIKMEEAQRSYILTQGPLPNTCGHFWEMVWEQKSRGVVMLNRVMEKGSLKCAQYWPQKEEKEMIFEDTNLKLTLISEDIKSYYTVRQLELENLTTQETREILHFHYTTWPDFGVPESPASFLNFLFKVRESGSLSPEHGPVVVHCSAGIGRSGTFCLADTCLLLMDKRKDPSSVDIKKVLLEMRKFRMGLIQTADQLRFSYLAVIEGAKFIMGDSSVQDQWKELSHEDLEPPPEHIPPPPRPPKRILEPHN
Experimental: as §1

PTPα Q259G = PTPα Q259G (Homo sapiens, UniProt P18433, Q483G); experiment: Enzyme kinetic analysis with mutant PTPs, Ki; details: pH 7.0
Chain of PTPα Q259G (P18433 211-512 Q483G limits assumed): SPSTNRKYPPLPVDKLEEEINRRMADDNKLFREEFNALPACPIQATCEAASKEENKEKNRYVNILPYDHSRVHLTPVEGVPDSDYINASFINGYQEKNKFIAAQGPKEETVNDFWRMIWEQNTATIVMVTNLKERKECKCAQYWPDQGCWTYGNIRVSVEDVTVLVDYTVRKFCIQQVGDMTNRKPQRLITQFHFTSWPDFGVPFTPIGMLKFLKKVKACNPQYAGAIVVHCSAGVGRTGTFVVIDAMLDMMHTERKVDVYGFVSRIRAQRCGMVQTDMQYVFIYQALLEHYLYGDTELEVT
Experimental: The compounds are evaluated for biological activity with a truncated form of PTP1B (corresponding to the first 321 amino acids), which was expressed in E. coli and purified to apparent homogeneity using published procedures well-known to those skilled in the art. The enzyme reactions are carried out using standard conditions essentially as described by Burke et al. (Biochemistry 35; 15989–15996 (1996)) incorporated by reference. The assay conditions are as follows. Appropriate concentrations of the compounds of the invention (e.g., 0.1 to 100 μM) are added to the reaction mixtures containing different concentrations of the substrate, p-nitrophenyl phosphate (range: 0.16 to 10 mM—final assay concentration). The buffer used was 50 mM HEPES pH 7.0, 100 mM sodium chloride, 0.1% (w/v) bovine serum albumin, 5 mM glutathione, and 1 mM EDTA. […] The enzyme activity was determined by measurement of the absorbance at 405 nm with appropriate corrections for absorbance at 405 nm of the compounds and p-nitrophenyl phosphate. The data are analyzed using nonlinear regression fit to classical Michaelis Menten enzyme kinetic models. Inhibition is expressed as Ki values in μM.

LAR = target: T3, LAR (Homo sapiens, UniProt P10586); experiment: PTPase inhibition, p-nitrophenyl phosphate substrate, Ki; details: pH 7.0 (Table 5); read-out: Ki values, LAR
T3 sequence (P10586 1285-1907 limits assumed): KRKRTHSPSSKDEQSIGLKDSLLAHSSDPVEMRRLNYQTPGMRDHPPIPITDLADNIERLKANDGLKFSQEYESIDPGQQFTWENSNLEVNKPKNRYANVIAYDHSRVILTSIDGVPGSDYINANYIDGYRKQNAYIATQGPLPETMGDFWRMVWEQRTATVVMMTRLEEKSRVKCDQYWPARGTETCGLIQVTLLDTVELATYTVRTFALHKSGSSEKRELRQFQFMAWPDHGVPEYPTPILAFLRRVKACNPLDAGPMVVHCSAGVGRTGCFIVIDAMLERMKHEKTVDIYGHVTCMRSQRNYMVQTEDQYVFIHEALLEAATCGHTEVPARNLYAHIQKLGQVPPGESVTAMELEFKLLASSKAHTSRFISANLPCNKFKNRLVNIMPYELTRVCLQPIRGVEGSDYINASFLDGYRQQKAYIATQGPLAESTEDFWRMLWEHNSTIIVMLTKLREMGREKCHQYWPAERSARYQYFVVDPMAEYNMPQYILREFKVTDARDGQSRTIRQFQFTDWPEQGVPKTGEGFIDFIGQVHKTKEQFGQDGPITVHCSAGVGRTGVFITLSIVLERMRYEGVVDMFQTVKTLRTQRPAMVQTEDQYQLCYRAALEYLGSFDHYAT
Experimental: The compounds are evaluated for biological activity with a truncated form of PTP1B (corresponding to the first 321 amino acids), which was expressed in E. coli and purified to apparent homogeneity using published procedures well-known to those skilled in the art. The enzyme reactions are carried out using standard conditions essentially as described by Burke et al. (Biochemistry 35; 15989–15996 (1996)) incorporated by reference. […] Appropriate concentrations of the compounds of the invention (e.g., 0.1 to 100 μM) are added to the reaction mixtures containing different concentrations of the substrate, p-nitrophenyl phosphate (range: 0.16 to 10 mM—final assay concentration). The buffer used was 50 mM HEPES pH 7.0, 100 mM sodium chloride, 0.1% (w/v) bovine serum albumin, 5 mM glutathione, and 1 mM EDTA. The reaction was started by addition of the enzyme and carried out in microtiter plates at 25° C. for 60 minutes. The reactions are stopped by addition of NaOH. The enzyme activity was determined by measurement of the absorbance at 405 nm with appropriate corrections for absorbance at 405 nm of the compounds and p-nitrophenyl phosphate. The data are analyzed using nonlinear regression fit to classical Michaelis Menten enzyme kinetic models. Inhibition is expressed as Ki values in μM.

PTP1B G259Q = target: T4, PTP1B G259Q (Homo sapiens, UniProt P18031, G259Q); experiment: Enzyme kinetic analysis with mutant PTPs, Ki; details: pH 7.0
T4 sequence (P18031 1-435 G259Q): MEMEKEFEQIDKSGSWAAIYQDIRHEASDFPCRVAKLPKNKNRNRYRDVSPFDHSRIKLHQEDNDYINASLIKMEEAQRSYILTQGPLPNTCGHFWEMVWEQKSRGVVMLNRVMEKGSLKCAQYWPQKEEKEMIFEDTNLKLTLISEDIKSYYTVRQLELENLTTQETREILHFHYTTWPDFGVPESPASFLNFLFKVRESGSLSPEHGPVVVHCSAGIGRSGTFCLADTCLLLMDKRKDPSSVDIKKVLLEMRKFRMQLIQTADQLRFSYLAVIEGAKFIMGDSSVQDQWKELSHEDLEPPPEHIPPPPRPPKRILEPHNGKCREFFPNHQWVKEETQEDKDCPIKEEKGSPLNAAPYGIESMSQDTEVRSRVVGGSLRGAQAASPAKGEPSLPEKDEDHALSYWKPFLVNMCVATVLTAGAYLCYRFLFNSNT
Text: To test directly, whether the above compound was addressing the proposed region of PTP1B, Compound N was subjected to detailed enzyme kinetic analyses using a set of wildtype (wt) and mutant PTPs. Two enzymes, PTPα and PTPH1, were chosen as representatives for PTPs with bulky side chains in the 259 position. Using a combination of wt and PTP mutants it has previously been shown that Gln259 in PTPα, in addition to its direct effect, also indirectly influences the binding of inhibitors and substrates, most likely due to a negative influence on the rotational freedom of the side chain of Gln262 (Peters et al., J. Biol. Chem. 275: 18201–18209 (2000)). As described above, selectivity can be obtained by introducing a basic nitrogen into 2-(oxalylamino)-4,5,6,7-tetrahydrobenzo[b]thiophene-3-carboxylic acid that causes attraction in PTP1B due to salt bridge formation to Asp48 and repulsion against PTPs with an asparagine in the 48 position, such as PTPα. To analyze if the current approach based on steric hindrance is generally applicable, it was decided to include a PTP with an aspartic acid in position 48. PTPH1, which like PTP1B is an intracellular enzyme with one domain only, was selected for these studies. The results of these studies are shown below (Table 4).
The assay conditions are as follows.

Question: Which Ki (CD45) does the source give for `O=C(O)C(=O)Nc1sc2c(c1C(=O)O)CCOC2COC1=NS(=O)(=O)c2ccccc21` (centres unmarked) [Compound N, 7-(1,1-dioxo-1H-benzo[d]isothiazol-3-yloxymethyl)-2-(oxalyl-amino)-4,7-dihyd ro-5H-thieno[2,3-c]pyran-3-carboxylic acid] here?
Answer: Its Ki is 500 µM.

Question: What about the Ki (PTP1B) of the same molecule?
Answer: Its Ki is 400 nM.

Question: And the Ki (PTPα Q259G)?
Answer: Its Ki is 70 µM.

Question: What about the Ki (LAR) of the same molecule?
Answer: Its Ki is 120 µM.

Question: And the Ki (PTP1B G259Q)?
Answer: The Ki was 65 µM.
